Counter-ions that a name gives are not always drawn.
Target: T1, full length SGK1 (Homo sapiens, UniProt O00141)
T1 construct: 125 μM full length SGK1 (Life Technologies Part #PR7358A); purchased Life Technologies PR7358A
T1 sequence (O00141 1-431): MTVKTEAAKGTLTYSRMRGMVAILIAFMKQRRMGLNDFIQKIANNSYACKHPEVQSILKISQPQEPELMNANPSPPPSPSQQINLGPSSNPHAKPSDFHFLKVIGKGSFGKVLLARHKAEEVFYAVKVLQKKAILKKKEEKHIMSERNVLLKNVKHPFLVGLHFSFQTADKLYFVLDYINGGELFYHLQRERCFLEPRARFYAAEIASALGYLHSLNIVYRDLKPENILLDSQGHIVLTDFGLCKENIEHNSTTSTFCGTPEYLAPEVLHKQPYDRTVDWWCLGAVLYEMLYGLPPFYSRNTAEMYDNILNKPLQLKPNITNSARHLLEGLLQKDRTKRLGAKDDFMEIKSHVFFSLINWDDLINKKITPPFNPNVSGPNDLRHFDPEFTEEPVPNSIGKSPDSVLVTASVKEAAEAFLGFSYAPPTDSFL
Assay: SGK1 inhibition Assay A (Caliper LabChip electrophoretic separation of fluorescent peptide substrate and phosphorylated product)
Format: biochemical
Conditions: Assay A; 20 μM ATP, 40 min incubation; read-out: SGK1 IC50

| IC50 [nM] | Compound |
| --- | --- |
| 3 | COC(=O)N1CC=C(c2cc(N3CCC[C@@H](NC(=O)c4sc(Cl)cc4OC4CCNC4)C3)c3c(N)ncnn23)C1 (stereo partly drawn) [Example 569, Methyl 3-(4-amino-5-((3R)-3-(5-chloro-3-(pyrrolidin-3-yloxy)thiophene-2-carboxamido)piperidin-1-yl)pyrrolo[2,1-f][1,2,4]triazin-7-yl)-2,5-dihydro-1H-pyrrole-1-carboxylate] |
| 19 | Cn1cc(-c2cc(N3CCC[C@@H](NC(=O)c4ccc(Cl)s4)C3)c3c(N)ncnn23)c(C2CC2)n1 [Example 203, (R)—N-(1-(4-amino-7-(3-cyclopropyl-1-methyl-1H-pyrazol-4-yl)pyrrolo[2,1-f][1,2,4]triazin-5-yl)piperidin-3-yl)-5-chlorothiophene-2-carboxamide, TFA] |
| 23 | COc1cc(C(=O)N[C@@H]2CCCN(c3cc(C4=CCN(C(C)=O)C4)n4ncnc(N)c34)C2)ccn1 [Example 716, (R)-N-(1-(7-(1-acetyl-2,5-dihydro-1H-pyrrol-3-yl)-4-aminopyrrolo[2,1-f][1,2,4]triazin-5-yl)piperidin-3-yl)-2-methoxyisonicotinamide] |
| 17 | Cc1cc(-c2cc(N3CCC[C@@H](NC(=O)c4ccc(C(F)F)s4)C3)c3c(N)ncnn23)cnc1C#N [Example 522] |
| 13 | CC(=O)N1CC=C(c2cc(N3CCC[C@@H](NC(=O)c4cc(C5CC5)[nH]n4)C3)c3c(N)ncnn23)C1 [Example 747] |
| 304 | CC(=O)N1CC=C(c2cc(N3CCC[C@@H](NC(=O)c4sc(C(F)F)cc4C4CCNC4)C3)c3c(N)ncnn23)C1 (stereo partly drawn) [Example 405, N-((R)-1-(7-(1-acetyl-2,5-dihydro-1H-pyrrol-3-yl)-4-aminopyrrolo[2,1-f][1,2,4]triazin-5-yl)piperidin-3-yl)-5-(difluoromethyl)-3-(pyrrolidin-3-yl)thiophene-2-carboxamide] |
| 213 | Nc1ncnn2c(-c3cn(CC(=O)O)nn3)cc(N3CCC[C@@H](NC(=O)c4ccc(Cl)s4)C3)c12 [Example 867, (R)-2-(4-(4-amino-5-(3-(5-chlorothiophene-2-carboxamido)piperidin-1-yl)pyrrolo[2,1-f][1,2,4]triazin-7-yl)-1H-1,2,3-triazol-1-yl)acetic acid] |
| 9 | Nc1ncnn2c(-c3ccc(=O)n(CC(F)F)c3)cc(N3CCC[C@@H](NC(=O)c4cc5ccccc5[nH]4)C3)c12 [Example 503, (R)-N-(1-(4-amino-7-(1-(2,2-difluoroethyl)-6-oxo-1,6-dihydropyridin-3-yl)pyrrolo[2,1-f][1,2,4]triazin-5-yl)piperidin-3-yl)-1H-indole-2-carboxamide] |
| 14 | CC(=O)NCCOc1cc(C(F)F)sc1C(=O)N[C@@H]1CCCN(c2cc(-c3ccc(C#N)nc3)n3ncnc(N)c23)C1 [Example 425, (R)-3-(2-acetamidocthoxy)-N-(1-(4-amino-7-(6-cyanopyridin-3-yl)pyrrolo[2,1-f][1,2,4]triazin-5-yl)piperidin-3-yl)-5-(difluoromethyl)thiophene-2-carboxamide] |
| 7 | Nc1ncnn2c(-c3ccnc(C(F)F)c3)cc(N3CCC[C@@H](NC(=O)c4sc(C(F)F)cc4N4CCOCC4)C3)c12 [Example 344, (R)—N-(1-(4-amino-7-(2-(difluoromethyl)pyridin-4-yl)pyrrolo[2,1-f][1,2,4]triazin-5-yl)piperidin-3-yl)-5-(difluoromethyl)-3-morpholinothiophene-2-carboxamide] |
| 3 | CS(=O)(=O)c1ccc(-c2cc(N3CCC[C@@H](NC(=O)c4ccc(Cl)s4)C3)c3c(N)ncnn23)cc1 [Example 94, (R)-N-(1-(4-amino-7-(4-(methylsulfonyl)phenyl)pyrrolo[2,1-f][1,2,4]triazin-5-yl)piperidin-3-yl)-5-chlorothiophene-2-carboxamide] |
| 6 | COc1c(C(=O)N[C@@H]2CCCN(c3cc(-c4ccnc(F)c4)n4ncnc(N)c34)C2)csc1Cl [Example 158, (R)-N-(1-(4-amino-7-(2-fluoropyridin-4-yl)pyrrolo[2,1-f][1,2,4]triazin-5-yl)piperidin-3-yl)-5-chloro-4-methoxythiophene-3-carboxamide] |
| 8 | CC(=O)N1CC=C(c2cc(N3CCCC(NC(=O)c4sc(Cl)cc4OC4CC5CC4CN5C)C3)c3c(N)ncnn23)C1 (single isomer, unassigned) [Example 608] |
| 35 | CN(C)CCOc1cc(Cl)sc1C(=O)N[C@@H]1CCCN(c2cc(C3=CCN(C(=O)C4CC4)CC3)n3ncnc(N)c23)C1 [Example 182, (R)-N-(1-(4-amino-7-(1-(cyclopropanecarbonyl)-1,2,3,6-tetrahydropyridin-4-yl)pyrrolo[2,1-f][1,2,4]triazin-5-yl)piperidin-3-yl)-5-chloro-3-(2-(dimethylamino)ethoxy) thiophene-2-carboxamide, 2 TFA] |
| 18 | Nc1ncnn2c(C3=CCN(C(=O)C4CC45CC5)C3)cc(N3CCC[C@@H](NC(=O)c4sc(Cl)cc4OCCN4CCOCC4)C3)c12 (stereo partly drawn) [Example 265, N-((3R)-1-(4-amino-7-(1-(spiro[2.2]pentane-1-carbonyl)-2,5-dihydro-1H-pyrrol-3-yl)pyrrolo[2,1-f][1,2,4]triazin-5-yl)piperidin-3-yl)-5-chloro-3-(2-morpholinoethoxy)thiophene-2-carboxamide] |

More lines, now with the values behind:

| Compound | IC50 [nM] |
| --- | --- |
| CN1CCC(c2cc(C(F)F)sc2C(=O)N[C@@H]2CCCN(c3cc(-c4ccc(C#N)nc4)n4ncnc(N)c34)C2)CC1 [Example 396, (R)-N-(1-(4-amino-7-(6-cyanopyridin-3-yl)pyrrolo[2,1-f][1,2,4]triazin-5-yl)piperidin-3-yl)-5-(difluoromethyl)-3-(1-methylpiperidin-4-yl)thiophene-2-carboxamide] | 146 |
| COC(C(=O)N1CC=C(c2cc(N3CCC[C@@H](NC(=O)c4sc(Cl)cc4OCCN4CCOCC4)C3)c3c(N)ncnn23)C1)C1CC1 (stereo partly drawn) [Example 260, N-((3R)-1-(4-amino-7-(1-(2-cyclopropyl-2-methoxyacetyl)-2,5-dihydro-1H-pyrrol-3-yl)pyrrolo[2,1-f] [1,2,4]triazin-5-yl)piperidin-3-yl)-5-chloro-3-(2-morpholinoethoxy)thiophene-2-carboxamide] | 48 |
| CC(=O)N1CC=C(c2cc(N3CCC[C@@H](NC(=O)c4sc(C(F)F)cc4C4=CCN(C)CC4)C3)c3c(N)ncnn23)C1 [Example 322, (R)—N-(1-(7-(1-acetyl-2,5-dihydro-1H-pyrrol-3-yl)-4-aminopyrrolo[2,1-f][1,2,4]triazin-5-yl)piperidin-3-yl)-5-(difluoromethyl)-3-(1-methyl-1,2,3,6-tetrahydropyridin-4-yl)thiophene-2-carboxamide] | 96 |
| NC(=O)c1ccc(-c2cc(N3CCC[C@@H](NC(=O)c4sc(Cl)cc4OCCN4CCOCC4)C3)c3c(N)ncnn23)cc1F [Example 163, (R)-N-(1-(4-amino-7-(4-carbamoyl-3-fluorophenyl)pyrrolo [2,1-f][1,2,4]triazin-5-yl)piperidin-3-yl)-5-chloro-3-(2-morpholinoethoxy) thiophene-2-carboxamide, TFA] | 6 |
| CC(C)(O)CCOc1cc(Cl)sc1C(=O)N[C@@H]1CCCN(c2cc(-c3ccnc(F)c3)n3ncnc(N)c23)C1 [Example 166, (R)—N-(1-(4-amino-7-(2-fluoropyridin-4-yl)pyrrolo[2,1-f][1,2,4]triazin-5-yl)piperidin-3-yl)-5-chloro-3-(3-hydroxy-3-methylbutoxy)thiophene-2-carboxamide] | 3 |
| CN(C)CCOc1cc(Cl)sc1C(=O)N[C@@H]1CCCN(c2cc(-c3ccc(C#N)c(F)c3)n3ncnc(N)c23)C1 [Example 279, (R)-N-(1-(4-amino-7-(4-cyano-3-fluorophenyl)pyrrolo[2,1-f][1,2,4]triazin-5-yl)piperidin-3-yl)-5-chloro-3-(2-(dimethylamino)ethoxy) thiophene-2-carboxamide] | 3 |
| CN(C)CCOc1cc(Cl)sc1C(=O)N[C@@H]1CCCN(c2cc(-c3ccn4nnnc4c3)n3ncnc(N)c23)C1 [Example 186, (R)—N-(1-(4-amino-7-(tetrazolo[1,5-a]pyridin-7-yl)pyrrolo[2,1-f][1,2,4]triazin-5-yl)piperidin-3-yl)-5-chloro-3-(2-(dimethylamino)ethoxy)thiophene-2-carboxamide] | 3 |
| CS(=O)(=O)c1ccc(-c2cc(N3CCCC(NC(=O)c4ccccn4)C3)c3c(N)ncnn23)cc1 (stereo not shown) [Example 2, N-(1-(4-amino-7-(4-(methylsulfonyl)phenyl)pyrrolo[2,1-f][1,2,4]triazin-5-yl)piperidin-3-yl)picolinamide, TFA] | 81 |
| Nc1ncnn2c(C3=CCN(C(=O)c4ccccn4)C3)cc(N3CCC[C@@H](NC(=O)c4ccc(Cl)s4)C3)c12 [Example 900, (R)-N-(1-(4-amino-7-(1-picolinoy1-2,5-dihydro-1H-pyrrol-3-yl)pyrrolo[2,1-f][1,2,4]triazin-5-y1)piperidin-3-y1)-5-chlorothiophene-2-carboxamide] | 12 |
| CS(=O)(=O)N1CC=C(c2cc(N3CCC[C@@H](NC(=O)c4sc(Cl)cc4OCCN4CCOCC4)C3)c3c(N)ncnn23)C1 [Example 142, (R)—N-(1-(4-amino-7-(1-(methylsulfonyl)-2,5-dihydro-1H-pyrrol-3-yl)pyrrolo[2,1-f][1,2,4]triazin-5-yl)piperidin-3-yl)-5-chloro-3-(2-morpholinoethoxy)thiophene-2-carboxamide, TFA] | 9 |

Reference: patent publication US20260250290A1 (BRISTOL-MYERS SQUIBB COMPANY, priority 2023, published 2026)
